In patent publication US20080221128A1, “Metalloprotease inhibitors containing a squaramide moiety” (priority 2007, published 2008):
Like-named read-outs stand apart in the source and are kept apart here.

Columns and labels:
Type in all cases: biochemical
[1] = molecular target: T1, MMP-13 (Homo sapiens, UniProt P45452); experiment: Assay for determining MMP-13 inhibition (fluorescent substrate); details: catalytic domain of MMP-13
T1 construct: stock solution of catalytic domain of MMP-13 enzyme (produced by Alantos or commercially available from Invitek (Berlin), Cat.# 30100812); purchased Invitek (Berlin) 30100812
Experimental: The typical assay for MMP-13 activity is carried out in assay buffer comprised of 50 mM Tris, pH 7.5, 150 mM NaCl, 5 mM CaCl2 and 0.05% Brij-35. Different concentrations of tested compounds are prepared in assay buffer in 50 μL aliquots. 10 μL of a 50 nM stock solution of catalytic domain of MMP-13 enzyme (produced by Alantos or commercially available from Invitek (Berlin), Cat.# 30100812) is added to the compound solution. The mixture of enzyme and compound in assay buffer is thoroughly mixed and incubated for 10 min at room temperature. Upon the completion of incubation, the assay is started by addition of 40 μL of a 12.5 μM stock solution of MMP-13 fluorescent substrate (Calbiochem, Cat. No. 444235). The time-dependent increase in fluorescence is measured at the 320 nm excitation and 390 nm emission by automatic plate multireader. The IC50 values are calculated from the initial reaction rates.

[2] = molecular target: T2, MMP-3 (Homo sapiens, UniProt P08254); experiment: Assay for determining MMP-3 inhibition (fluorescent substrate); details: catalytic domain of MMP-3
T2 construct: stock solution of the catalytic domain of MMP-3 enzyme (Biomol, Cat. No. SE-109); purchased Biomol SE-109
Experimental: The typical assay for MMP-3 activity is carried out in assay buffer comprised of 50 mM MES, pH 6.0, 10 mM CaCl2 and 0.05% Brij-35. Different concentrations of tested compounds are prepared in assay buffer in 50 μL aliquots. 10 μL of a […] stock solution of the catalytic domain of MMP-3 enzyme (Biomol, Cat. No. SE-109) is added to the compound solution. The mixture of enzyme and compound in assay buffer is thoroughly mixed and incubated for 10 min at room temperature. Upon the completion of incubation, the assay is started by addition of 40 μL of a 12.5 μM stock solution of NFF-3 fluorescent substrate (Calbiochem, Cat. No. 480-455). The time-dependent increase in fluorescence is measured at the 330 nm excitation and 390 nm emission by an automatic plate multireader. The IC50 values are calculated from the initial reaction rates.

[3] = molecular target: T3, MMP-8 (Homo sapiens, UniProt P22894); experiment: Assay for determining MMP-8 inhibition (fluorescent substrate); details: activated MMP-8 enzyme; upper bound class
T3 construct: purchased Calbiochem 444229
Experimental: The typical assay for MMP-8 activity is carried out in assay buffer comprised of 50 mM Tris, pH 7.5, 150 mM NaCl, 5 mM CaCl2 and 0.05% Brij-35. Different concentrations of tested compounds are prepared in assay buffer in 50 μL aliquots. 10 μL of a 50 nM stock solution of activated MMP-8 enzyme (Calbiochem, Cat. No. 444229) is added to the compound solution. The mixture of enzyme and compound in assay buffer is thoroughly mixed and incubated for 10 min at 37° C. Upon the completion of incubation, the assay is started by addition of 40 μL of a 10 μM stock solution of OmniMMP fluorescent substrate (Biomol, Cat. No. P-126). The time-dependent increase in fluorescence is measured at the 320 nm excitation and 390 nm emission by an automatic plate multireader at 37° C. The IC50 values are calculated from the initial reaction rates.

[4] = upper bound class, read-out: MMP-13 inhibition activity (IC50 MMP-13)
[5] = upper bound class, read-out: MMP-3 inhibition activity (IC50 MMP-3)

T2 sequence (P08254 100-272 limits assumed): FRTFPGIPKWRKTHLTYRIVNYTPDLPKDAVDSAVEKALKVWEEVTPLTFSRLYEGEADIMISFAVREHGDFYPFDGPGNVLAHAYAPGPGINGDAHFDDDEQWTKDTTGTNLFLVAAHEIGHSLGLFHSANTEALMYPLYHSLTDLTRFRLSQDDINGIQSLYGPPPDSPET
T3 sequence (P22894 101-467): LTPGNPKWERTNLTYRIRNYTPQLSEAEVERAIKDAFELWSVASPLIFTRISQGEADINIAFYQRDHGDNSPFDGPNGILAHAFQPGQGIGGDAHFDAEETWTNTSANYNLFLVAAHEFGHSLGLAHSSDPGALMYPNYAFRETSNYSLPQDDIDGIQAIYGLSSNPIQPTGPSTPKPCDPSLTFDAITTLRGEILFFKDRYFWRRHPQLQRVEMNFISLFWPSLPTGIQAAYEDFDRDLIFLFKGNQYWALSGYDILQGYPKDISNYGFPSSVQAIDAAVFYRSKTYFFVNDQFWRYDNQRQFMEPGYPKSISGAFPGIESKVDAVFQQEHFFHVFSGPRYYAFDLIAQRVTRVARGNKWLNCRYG

| IC50 [1, 4] [nM] | IC50 ([2]; range bounds printed with own units (nM to μM), read-out: MMP-3 inhibition activity (IC50 MMP-3), range) [nM] | IC50 ([1]; range bounds printed with own units (nM to μM), read-out: MMP-13 inhibition activity (IC50 MMP-13), range) [nM] | IC50 [3] [nM] | IC50 [2, 5] [nM] | Structure (SMILES) |
| --- | --- | --- | --- | --- | --- |
| < 100 |  |  |  |  | Cc1nc(C(=O)NCc2ccc3c(c2)CN(c2c(N)c(=O)c2=O)CC3)[nH]c(=O)c1C [Example 1/2] |
|  | 250 to 20000 | 100 to 20000 |  |  | Nc1c(N2CCc3ccc(CNC(=O)c4ncc(-c5ccc(F)cc5)c(=O)[nH]4)cc3C2)c(=O)c1=O [Example 1] |
| < 100 |  |  | < 250 | < 250 | Cc1csc2nc(C(=O)NCc3ccc4c(c3)CN(c3c(N)c(=O)c3=O)CC4)[nH]c(=O)c12 [Example 1/3] |
| < 100 |  |  | < 250 | < 250 | Nc1c(N2CCc3ccc(CNC(=O)c4nc5sc6c(c5c(=O)[nH]4)CCC4(C6)OCCO4)cc3C2)c(=O)c1=O [1/8] |
